Data taken from US20250179047A1, “5-[7-(3,4-DIHYDRO-1H-ISOQUINOLINE-2-CARBONYL)-1,2,3,4 TETRAHYDROISOQUINOLIN-6-YL]-1H-PYRROLE-3-CARBOXAMIDE DERIVATIVES, PHARMACEUTICAL COMPOSITIONS CONTAINING THEM AND THEIR USES AS PRO-APOPTOTIC AGENTS” (LES LABORATOIRES SERVIER, priority 2022, published 2025).

How the values were obtained:
[1] = tested on: BCL2 G101V; experiment: TR-FRET competitive binding assay, BCL2 G101V; design: species or system human; conditions: ratio Ki BCL2 G101V / Ki BCL2 WT
How it was run: (§1)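 Terbium-labelled N-terminal Halo-fusion BCL2 or BCLXL (E. coli), 0.5 nM, competed against fluorescein-labelled PUMA peptide (2 or 20 nM) for 2 h at 23° C in 50 mM Hepes pH 7.5, 150 mM NaCl, 5% DMSO. TR-FRET 520/495 nm ratio gave IC50 by four-parameter fit; Ki derived from IC50.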

[2] = target: BCL2 G101V (Homo sapiens, UniProt P10415, G101V); experiment: TR-FRET competitive binding assay, BCL2 G101V; conditions: BCL2 G101V; Ki determined from IC50; read-out: TR_FRET EKI_Bcl2 G101V
How it was run: as §1

[3] = target: BCLXL WT (Homo sapiens (Human), UniProt Q07817); experiment: TR-FRET competitive binding assay, BCLXL WT; conditions: for Ki: BCLXL WT, Ki determined from IC50, read-out: TR_FRET EKI BclxL; for TR_FRET EKI BCLxL/WT selectivty ratio: ratio Ki BCLxL / Ki BCL2 WT
How it was run: as §1

[4] = tested on: KMS-12-PE Bcl-2 WT; experiment: In vitro cytotoxicity CellTiter-Glo 48 h, KMS-12-PE Bcl-2 WT; type: cell-based; conditions: Homo sapiens, KMS-12-PE, C50 = concentration needed to reach 50% of the cellular viability
How it was run: (§2)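 CTG luminescence read-out; C50 = concentration reaching 50% cellular viability. Cells: KMS-12-PE expressing Bcl-2 WT or G101V (lentiviral, TagRFP-sorted). 11-pt curve, 48 h, 37 °C/5% CO2.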

[5] = target: BCL2 WT (Homo sapiens (Human), UniProt P10415); experiment: TR-FRET competitive binding assay, BCL2 WT; conditions: Ki determined from IC50, read-out: TR_FRET EKI_Bcl2 WT
How it was run: as §1

[6] = Pharmacokinetics in SCID mice; type: in vivo; conditions: 25 mg/kg IV bolus; for PK parameters Cinf: concentration at the end of bolus administration; for AUC: mouse, blood, area under curve over 24 h, read-out: PK parameters AUC24
Protocol: (§3) Pharmacokinetic (PK) and platelet toxicity were investigated in SCID mice. Compounds were administered at 25 mg/kg by IV bolus, and formulated in PEG/Ethanol/NaCl 0.9% (40/10/50 v/v/v).
(§4) Blood samples (3 animals/time point and 3 time points/animal) were collected over 24 h after dosing: 0.05 h, 0.5 h, 1 h, 3 h, 6 h and 24 h for PK and 6 h and 24 h for platelets.
(§5) PK samples were analyzed by liquid chromatography using tandem mass spectrometry detection (LC-MS/MS) and platelet count (109/L) was measured using an hematology analyzer. Percentage of platelet loss was calculated at both time points (T+6 h and 24 h) as compared to a control group of 6 animals. PK parameters (Cinf and AUC24, which correspond to the concentration at the end of bolus administration and the area under curve over 24 h, respectively) were also determined using a non-compartmental analysis.

[7] = tested on: KMS-12-PE Bcl-2 G101V; experiment: In vitro cytotoxicity CellTiter-Glo 48 h, KMS-12-PE Bcl-2 G101V; type: cell-based; conditions: for Ratio (G101V/WT): C50 KMS-12-PE Bcl-2 G101V over C50 KMS-12-PE Bcl-2 WT; for IC50: Homo sapiens, KMS-12-PE, 48 h, CellTiter-Glo, C50 = concentration needed to reach 50% of the cellular viability
How it was run: as §2

[8] = tested on: platelets; experiment: Platelet depletion in SCID mice; type: in vivo; conditions: 25 mg/kg IV bolus, vs control group; for Platelet loss (%) 6 h: 6 h after dosing; for Platelet loss (%) 24 h: 24 h after dosing
Protocol: as §3, §4, §5

[9] = target: BCL2 D103Y (Homo sapiens, UniProt P10415, D103Y); experiment: TR-FRET competitive binding assay, BCL2 D103Y; conditions: Ki determined from IC50, read-out: TR_FRET EKI_Bcl2 D103Y
How it was run: as §1

[10] = target: BCL2 F104I (Homo sapiens, UniProt P10415, F104I); experiment: TR-FRET competitive binding assay, BCL2 F104I; conditions: Ki determined from IC50, read-out: TR_FRET EKI_Bcl2 F104I
How it was run: as §1

[11] = target: BCL2 D111A (Homo sapiens, UniProt P10415, D111A); experiment: TR-FRET competitive binding assay, BCL2 D111A; conditions: Ki determined from IC50, read-out: TR_FRET EKI_Bcl2 D111A
How it was run: as §1

BCLXL WT, sequence (Q07817 other isoform, or with tags, fused parts or gaps): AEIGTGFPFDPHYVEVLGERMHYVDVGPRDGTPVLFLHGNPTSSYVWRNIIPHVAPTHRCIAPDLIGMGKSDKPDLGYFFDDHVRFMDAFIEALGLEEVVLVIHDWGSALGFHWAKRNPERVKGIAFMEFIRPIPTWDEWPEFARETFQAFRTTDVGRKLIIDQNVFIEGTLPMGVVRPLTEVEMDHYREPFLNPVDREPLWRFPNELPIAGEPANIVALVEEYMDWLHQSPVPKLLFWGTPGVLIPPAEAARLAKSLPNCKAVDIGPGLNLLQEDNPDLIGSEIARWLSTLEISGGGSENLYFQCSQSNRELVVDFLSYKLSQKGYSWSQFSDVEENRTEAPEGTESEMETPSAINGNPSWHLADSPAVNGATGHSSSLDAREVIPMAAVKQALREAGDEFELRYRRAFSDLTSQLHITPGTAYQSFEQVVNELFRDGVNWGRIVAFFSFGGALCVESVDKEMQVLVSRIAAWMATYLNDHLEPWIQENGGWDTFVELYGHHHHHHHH

Compound	TR_FRET EKI G101V/WT selectivty ratio [1]	Ki [2] [nM]	Ki [3] [nM]	TR_FRET EKI BCLxL/WT selectivty ratio [3]	IC50 [4] [µM]	Ki [5] [nM]	PK parameters Cinf [6] [µM]	AUC [6] [µM·h]	Ratio (G101V/WT) [7]	IC50 [7] [µM]	Platelet loss (%) 6 h [8] [%]	Platelet loss (%) 24 h [8] [%]	Ki [9] [nM]	Ki [10] [nM]	Ki [11] [nM]
Cc1c(N(C(=O)c2cc(-c3cc4c(cc3C(=O)N3Cc5ccccc5C[C@H]3C)CN(S(=O)(=O)Cc3ccccc3)CC4)n(C)c2C)c2ccc(O)cc2)cc(C#N)n1C [Example 14, 5-[2-benzylsulfonyl-7-[(3R)-3-methyl-3,4-dihydro-1H-isoquinoline-2-carbonyl]-3,4-dihydro-1H-isoquinolin-6-yl]-N-(5-cyano-1,2-dimethyl-pyrrol-3-yl)-N-(4-hydroxyphenyl)-1,2-dimethyl-pyrrole-3-carboxamide]	5.4	4.9	53	58.9	0.0096	0.9	13.5	18.5	8.86	0.0852	16.1	12.5	3.7	–	–
Cc1c(N(C(=O)c2cc(-c3cc4c(cc3C(=O)N3Cc5ccccc5C[C@H]3C)CN(C(=O)Cc3ccc(N5CCN(CC(F)(F)F)CC5)cc3)CC4)n(C)c2C)c2ccc(O)cc2)cc(C#N)n1C [Example 23, N-(5-cyano-1,2-dimethyl-1H-pyrrol-3-yl)-N-(4-hydroxyphenyl)-1,2-dimethyl-5-{7-[(3R)-3-methyl-1,2,3,4-tetrahydroisoquinoline-2-carbonyl]-2-(2-{4-[4-(2,2,2-trifluoroethyl)piperazin-1-yl]phenyl}acetyl)-1,2,3,4-tetrahydroisoquinolin-6-yl}-1H-pyrrole-3-carboxamide]	6.0	3.5	48.5	83.6	0.0096	0.58	6.8	10.8	9.34	0.0898	19.6	12.8	1.09	19.7	1.54
Cc1c(N(C(=O)c2cc(-c3cc4c(cc3C(=O)N3Cc5ccccc5C[C@H]3C)CN(C(=O)Cc3ccc(C5CCN(CCF)CC5)c(F)c3)CC4)n(C)c2C)c2ccc(O)cc2)cc(C#N)n1C [Example 28, N-(5-cyano-1,2-dimethylpyrrol-3-yl)-5-[2-(2-{3-fluoro-4-[1-(2-fluoroethyl)piperidin-4-yl]phenyl}acetyl)-7-{[(3R)-3-methyl-3,4-dihydro-1H-isoquinolin-2-yl]carbonyl}-3,4-dihydro-1H-isoquinolin-6-yl]-N-(4-hydroxyphenyl)-1,2-dimethylpyrrole-3-carboxamide]	4.8	1.2	5.6	22.4	0.0099	0.25	18.2	38.3	6.51	0.0643	23.2	15.2	0.34	6.47	0.59
COc1ccc(CC(=O)N2CCc3cc(-c4cc(C(=O)N(c5ccc(O)cc5)c5cc(C#N)n(C)c5C)c(C)n4C)c(C(=O)N4Cc5ccccc5C[C@H]4CN4CCCCC4)cc3C2)c(F)c1 [Example 33, N-(5-cyano-1,2-dimethylpyrrol-3-yl)-5-{2-[2-(2-fluoro-4-methoxyphenyl)acetyl]-7-{[(3S)-3-(piperidin-1-ylmethyl)-3,4-dihydro-1H-isoquinolin-2-yl]carbonyl}-3,4-dihydro-1H-isoquinolin-6-yl}-N-(4-hydroxyphenyl)-1,2-dimethylpyrrole-3-carboxamide]	3.3	0.5	3.7	24.7	0.0054	0.15	8.4	12.6	9.09	0.0491	33.5	22.5	0.22	0.5	0.1
